Results taken from publication PMC8812547 (Proceedings of the National Academy of Sciences of the …, 2022).

Experiments:
[1] = test system: KV2.1; conditions: cited from earlier work
[2] = test system: small dorsal root ganglion neurons; format: cell-based, mouse; conditions: A803467 1 µM with sPm1a; n = 6; sPm1a vs. A803467/sPm1a P = 0.0007
[3] = test system: adult mice (hindpaw); format: in vivo, mouse; conditions: 0.2 nmol A803467 coadministered with 0.6 nmol sPm1a, intraplantar; P < 0.001
[4] = test system: adult mice (hindpaw); experiment: mechanical paw withdrawal threshold; format: in vivo, mouse; conditions: 200 pmol A803467 with 600 pmol sPm1a; n = 5 to 8; P < 0.001
[5] = test system: TTX-R NaV channels of small DRG neurons; format: cell-based, mouse; conditions: A803467 1 μM with sPm1a; TTX 0.5 μM; n = 5

Molecule	KV2.1 gating modification [1]	inhibition of sPm1a-induced neuronal firing [2]	spontaneous nocifensive behavior, paw flinches [3]	paw withdrawal force (mechanical allodynia) [4]	reduction of sPm1a-sensitive TTX-R NaV component [5]
ScTx1: gating-modifier venom peptide (DCTRMFGACRRDSDCCPHLGCKPTSKYCAWDGTI; Stromatoxin-1; UniProt P60991 1-34, looked up)	shifting its activation to more depolarized voltages	–	–	–	–
COc1cc(NC(=O)c2ccc(-c3ccc(Cl)cc3)o2)cc(OC)c1 [A803467]	–	abolished sPm1a-induced neuronal firing	93.8 ± 8.8 flinches per 15 min	2.5 ± 0.2 g	87.3 ± 11.1%
